Measured values taken from patent US20050039223A1, “Knock-in-mouse” (priority 2002, published 2005).

Key:
[1] = biological target: T1, nAChR containing α4-T265I (control α4, mutated α4 and β2) (Homo sapiens, UniProt P17787+P43681, T293I); assay: ACh- and CBZ-dose effect, two electrode voltage clamp in Xenopus oocytes expressing receptors containing α4-T265I; assay type: cell-based
T1 construct: expressed in transfected cells; host or cells: Xenopus oocytes, nuclear cDNA injection
Method: Expression experiments in Xenopus oocytes were conducted as previously described (2). Nuclear cDNA injections were conducted using a ratio of 0.5 control α4, 0.5 mutated α4 and 1 β2 (total amount 2 ng/oocytes) (3). The oocytes were kept in BARTH solution containing 88 mM NaCl, 1 mM KCl, 2.4 mM NaHCO3, 10 mM HEPES, 0.82 mM MgSO47H2O, 0.33 mM Ca(NO3)2.4H2O, 0.41 mM CaCl2.6H2O, pH 7.4, adjusted with NaOH and supplemented with kanamycin (20 μg/ml), penicillin (100 μg/ml) and streptomycin (100 μg/ml). Recordings were made 2 to 3 days later using the two electrode voltage clamp technique with a GENE-CLAMP amplifier (Axon Instrument). During the experiments the oocytes were continuously rinsed with OR2 solution: 82.5 mM NaCl, 2.5 mM KCl, 2.5 mM CaCl2, 5 mM HEPES, pH 7.4, adjusted with NaOH. Unless stated otherwise, the holding potential was −100 mV and the experiments were performed at 18° C. ACh dose response curves were best fitted by the sum of two empirical Hill equations: y=Imax{a/(1+(EC50H/x)^nH1)+(1−a)/(1+(EC50L/x)^nH2)} (equation (1)). Imax is the maximal current amplitude and x is the agonist concentration. EC50H, nH1 and a are the half-effective concentration, the Hill coefficient the percentage of receptors in high-affinity state, respectively, whereas EC50L and nH2 correspond to the half-effective concentration and the Hill coefficient in low-affinity state. […]

ADNFLE = ADNFLE patients; antiepileptic drug resistant cases also exist; cited from earlier work

T1 sequence (P43681 29-627 T293I limits assumed): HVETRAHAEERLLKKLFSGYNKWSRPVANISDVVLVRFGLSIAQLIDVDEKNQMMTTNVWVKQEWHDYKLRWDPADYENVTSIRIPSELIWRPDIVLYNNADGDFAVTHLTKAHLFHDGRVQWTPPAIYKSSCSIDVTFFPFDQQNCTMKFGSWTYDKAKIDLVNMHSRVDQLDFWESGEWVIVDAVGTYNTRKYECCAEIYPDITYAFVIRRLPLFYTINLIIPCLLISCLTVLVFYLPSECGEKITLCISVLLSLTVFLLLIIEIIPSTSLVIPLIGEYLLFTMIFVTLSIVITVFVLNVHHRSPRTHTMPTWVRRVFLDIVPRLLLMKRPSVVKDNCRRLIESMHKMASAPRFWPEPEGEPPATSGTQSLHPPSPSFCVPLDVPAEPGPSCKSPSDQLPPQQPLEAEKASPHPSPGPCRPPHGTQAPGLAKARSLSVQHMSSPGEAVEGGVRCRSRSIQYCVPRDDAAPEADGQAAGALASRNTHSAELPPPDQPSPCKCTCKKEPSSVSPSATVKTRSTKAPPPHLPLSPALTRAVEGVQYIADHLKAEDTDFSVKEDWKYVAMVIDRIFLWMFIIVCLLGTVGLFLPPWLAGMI
T1 sequence (P43681 27-627, stated change not applied): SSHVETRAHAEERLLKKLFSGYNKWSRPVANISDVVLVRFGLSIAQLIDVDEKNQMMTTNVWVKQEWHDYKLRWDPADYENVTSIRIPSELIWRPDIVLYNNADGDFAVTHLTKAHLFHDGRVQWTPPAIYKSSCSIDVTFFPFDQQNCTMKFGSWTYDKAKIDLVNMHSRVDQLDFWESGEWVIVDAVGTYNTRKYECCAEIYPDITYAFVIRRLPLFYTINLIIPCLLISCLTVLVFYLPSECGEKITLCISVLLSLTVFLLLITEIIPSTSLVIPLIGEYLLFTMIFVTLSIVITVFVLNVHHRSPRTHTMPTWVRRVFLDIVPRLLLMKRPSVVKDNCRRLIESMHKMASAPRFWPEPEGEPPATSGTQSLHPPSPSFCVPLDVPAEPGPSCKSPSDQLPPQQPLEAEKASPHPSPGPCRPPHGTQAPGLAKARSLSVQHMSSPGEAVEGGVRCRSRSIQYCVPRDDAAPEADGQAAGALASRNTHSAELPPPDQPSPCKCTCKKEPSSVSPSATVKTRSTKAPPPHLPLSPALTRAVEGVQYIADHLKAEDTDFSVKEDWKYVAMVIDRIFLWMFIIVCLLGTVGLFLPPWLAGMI
T1 sequence (P17787 26-502): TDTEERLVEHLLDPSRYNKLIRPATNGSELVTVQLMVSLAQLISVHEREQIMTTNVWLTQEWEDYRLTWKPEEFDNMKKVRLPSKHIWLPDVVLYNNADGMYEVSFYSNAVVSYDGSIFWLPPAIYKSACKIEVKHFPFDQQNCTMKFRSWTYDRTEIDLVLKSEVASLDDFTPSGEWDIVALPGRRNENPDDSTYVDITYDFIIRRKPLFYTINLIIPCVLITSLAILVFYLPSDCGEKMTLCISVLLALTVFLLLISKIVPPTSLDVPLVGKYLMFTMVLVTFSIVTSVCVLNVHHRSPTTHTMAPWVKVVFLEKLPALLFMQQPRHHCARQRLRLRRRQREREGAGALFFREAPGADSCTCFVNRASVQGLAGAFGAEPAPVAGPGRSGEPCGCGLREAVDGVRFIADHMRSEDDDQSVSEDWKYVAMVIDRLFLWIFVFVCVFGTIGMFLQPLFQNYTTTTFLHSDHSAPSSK

Carbamazepin-sensitivity ([1]; α4-T265I compared with control, CBZ inhibition of ACh-evoked currents) | SMILES | ACh-sensitivity of the mutated receptors ([1]; α4-T265I mutated receptors compared with control, Xenopus oocytes) | Treatability of ADNFLE (ADNFLE)
– | CC(=O)OCC[N+](C)(C)C [ACh] | increased | –
non-increased | NC(=O)N1c2ccccc2C=Cc2ccccc21 [Carbamazepin, Carbamazepine] | – | can normally be well treated
